Assay results as given in PMC2346451 (PLoS ONE, 2008).
Read-outs that look alike come from different tables or passages of the source.

Assays:
[1] = molecular target: rat TRPV1 (rTRPV1) (Rattus norvegicus, UniProt O35433); assay: Whole-cell patch clamp of rat TRPV1 expressed in HEK-293T cells; format: cell-based; conditions: for Increase of agonist-evoked current prior to onset of inhibition: citral 1 mM, n = 8
Procedure: (§1) Transformed human embryonic kidney-293 (HEK-293T) cells were grown in Dulbecco's modified Eagle's medium (DMEM)+F-12 supplemented with 10% fetal calf serum, and 1% penicillin/streptomycin in 5% CO2 at 37°C. Cells grown to 90% confluence in 35 mm Petri dishes were transiently transfected with plasmid DNA encoding a TRP channel construct (1 µg). Rat TRPV1 (rTRPV1) was cloned into an enhanced green fluorescent protein-containing vector (pTracer-CMV2; Invitrogen, Carlsbad, CA). Chicken TRPV1 (cTRPV1), the chicken rat TRPV1 chimera (crcTRPV1), rat TRPV2 (rTRPV2), mouse TRPV3 (mTRPV3), mouse TRPV4 (mTRPV4), rat TRPM8 (rTRPM8), and rat TRPA1 (rTRPA1), were cloned into pcDNA3 and co-transfected with enhanced green fluorescent protein (0.1 µg) to follow expression. The cTRPV1 and crcTRPV1 clones were kindly provided by Dr. David Julius. Recordings were carried out 24–36 hours after transfection. Cells were split via trypsin EDTA, plated on glass coverslips at 5–10% confluence, and used 2–3 hours later.
(§2) Electrophysiological experiments were performed using the whole-cell patch-clamp technique at room temperature. Modified Ringer's solution with low chloride and nominal calcium contained (in mM): 130 sodium hydroxide, 5 potassium chloride, 1 magnesium chloride, 10 sodium 4-(2-hydroxyethyl)-1-piperazineethanesulfonic acid, 10 2-(N-morpholino)ethanesulfonic acid, and 20 glucose (pH 7.4; 310 milli-osmolar). […] 2 mM calcium chloride was included in the external solution where noted. To activate TRPV1, the modified Ringer's solution was made at pH 5 (low pH solution) and the chloride concentration was kept to a minimum to prevent contamination of the TRPV1 currents with acid-activated chloride currents. For recordings from heterologously expressing cells, the internal pipette solution contained (in mM): 125 cesium-Methanesulfonate, 10 cesium (1.2-bis(o-aminophenoxy)ethane-N,N,N',N'-tetraacetic acid, 8 sodium chloride, 4 magnesium adenosine triphosphate, and 10 HEPES (pH 7.2; 290 mOSM; nominal free calcium concentrations). For TRPA1 and dorsal root ganglion recordings, the internal pipette solution contained (in mM): 110 cesium-Methanesulfonate, 0.5 cesium4BAPTA, 8 sodium chloride, 0.2 calcium chloride, 4 magnesium-ATP, 4 sodium-GTP, and 10 4-(2-hydroxyethyl)-1-piperazineethanesulfonic acid (pH 7.2; 290 mOSM; 100 nM free calcium internal). MaxChelator was used to calculate the free calcium concentration (http://www.stanford.edu/cpatton/maxc.html).
(§3) Recordings were obtained using an Axopatch 200B amplifier, Digidata 1322A analog-to-digital converter, and pClamp 8.01 software (Molecular Devices, Union City, CA). Data were low-pass filtered at 2 kHz and digitized at 5 kHz. Borosilicate glass pipettes (World Precision Instruments, Sarasota, FL) were typically 3 MΩ pipette resistance after fire polishing. Cell capacitance was measured for each cell, and access resistance compensated to ∼80%. Recordings were begun ∼5 minutes after initial rupture to ensure initial steady state conditions. Current-voltage (I-V) relations were obtained using a ramp protocol. Voltage ramps (400 ms) from −100 to +40 or +100 mV were applied every 1–2 seconds and the holding potential was either −70 mV or 0 mV (see Figure Legends). A 40 ms step was added at the beginning and end of the ramp (i.e. at −100 mV, +40 mV or +100 mV). Liquid junction potentials were not corrected.
(§4) The dose response curves were fit with the Hill equation, where [drawing 8] and [A] is the concentration of agonist or blocker, N is the Hill coefficient, and KD is the [A] for Imeasured/Imax = 0.5. The term apparent dissociation constant is used in place of the half concentration of excitation and inhibition. […] Averaged data are presented as mean±standard error (S.E.) throughout. Statistical analysis included paired and unpaired Student's t-test comparisons of the data; p values are reported in the text.

[2] = molecular target: T1, rat TRPV2 (rTRPV2) (Rattus norvegicus, UniProt Q9WUD2); assay: Whole-cell patch clamp of rat TRPV2 expressed in HEK-293T cells; format: cell-based; set-up: key to Agonist efficacy: Ø - not activated; conditions: for Increase of agonist-evoked current prior to onset of inhibition: citral 1 mM, n = 10
T1 construct: expressed in transfected cells; host or cells: HEK-293T
T1 sequence (Q9WUD2 1-761): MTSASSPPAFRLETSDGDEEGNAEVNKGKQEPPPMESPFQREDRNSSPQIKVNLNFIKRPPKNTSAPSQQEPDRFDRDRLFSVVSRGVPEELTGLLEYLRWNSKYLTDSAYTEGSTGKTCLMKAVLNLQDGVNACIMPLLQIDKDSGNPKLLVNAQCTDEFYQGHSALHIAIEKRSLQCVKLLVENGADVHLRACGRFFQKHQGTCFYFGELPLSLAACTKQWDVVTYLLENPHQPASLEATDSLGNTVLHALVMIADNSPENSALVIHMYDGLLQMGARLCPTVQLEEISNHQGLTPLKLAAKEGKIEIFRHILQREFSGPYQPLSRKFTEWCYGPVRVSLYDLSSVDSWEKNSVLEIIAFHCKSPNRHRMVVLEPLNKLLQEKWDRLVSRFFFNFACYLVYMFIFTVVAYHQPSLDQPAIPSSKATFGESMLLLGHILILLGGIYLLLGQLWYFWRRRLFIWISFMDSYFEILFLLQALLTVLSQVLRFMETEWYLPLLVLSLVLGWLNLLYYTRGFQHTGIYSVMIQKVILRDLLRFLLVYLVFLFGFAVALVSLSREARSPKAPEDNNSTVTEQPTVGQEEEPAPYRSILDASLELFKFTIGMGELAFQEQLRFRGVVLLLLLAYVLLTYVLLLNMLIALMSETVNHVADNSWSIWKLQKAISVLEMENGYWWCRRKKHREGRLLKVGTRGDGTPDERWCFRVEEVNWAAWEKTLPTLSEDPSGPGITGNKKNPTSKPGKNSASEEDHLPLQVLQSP
Procedure: as §1, §2, §3, §4

[3] = no reference given; cited from earlier work
[4] = molecular target: T2, rat TRPV1 tyrosine to alanine point mutant at residue 511 (Rattus norvegicus, UniProt O35433, Y511A); assay: Patch clamp of capsaicin-insensitive rat TRPV1 point mutant; format: cell-based; conditions: data not shown
T2 construct: expressed in transfected cells; host or cells: HEK-293T (inferred from the general methods)
T2 sequence (O35433 whole entry Y511A): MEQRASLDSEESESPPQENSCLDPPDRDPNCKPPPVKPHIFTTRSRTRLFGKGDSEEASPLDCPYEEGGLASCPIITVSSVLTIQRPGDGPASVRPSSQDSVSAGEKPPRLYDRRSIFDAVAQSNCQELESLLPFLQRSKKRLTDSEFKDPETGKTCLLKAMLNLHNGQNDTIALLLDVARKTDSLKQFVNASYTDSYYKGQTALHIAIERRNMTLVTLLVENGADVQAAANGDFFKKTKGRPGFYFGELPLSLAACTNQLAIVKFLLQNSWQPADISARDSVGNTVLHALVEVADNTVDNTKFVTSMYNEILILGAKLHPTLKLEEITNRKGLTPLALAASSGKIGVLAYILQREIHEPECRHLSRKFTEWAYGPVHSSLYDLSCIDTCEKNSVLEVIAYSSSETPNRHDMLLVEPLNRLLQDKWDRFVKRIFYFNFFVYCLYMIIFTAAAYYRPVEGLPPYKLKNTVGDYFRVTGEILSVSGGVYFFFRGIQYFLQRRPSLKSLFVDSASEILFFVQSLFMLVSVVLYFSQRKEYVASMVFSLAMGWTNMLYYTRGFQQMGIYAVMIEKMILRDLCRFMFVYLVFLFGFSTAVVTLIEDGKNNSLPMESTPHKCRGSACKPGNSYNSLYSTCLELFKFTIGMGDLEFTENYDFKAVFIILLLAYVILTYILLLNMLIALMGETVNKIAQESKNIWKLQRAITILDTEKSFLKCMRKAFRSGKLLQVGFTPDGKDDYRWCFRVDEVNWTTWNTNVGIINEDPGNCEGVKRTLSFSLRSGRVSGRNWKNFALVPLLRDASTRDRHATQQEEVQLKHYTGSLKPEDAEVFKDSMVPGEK

rat TRPV1 (rTRPV1), sequence (O35433 whole entry): as the sequence (O35433 whole entry Y511A) above, with A511Y counted along it

CC(C)=CCCC(C)=CC=O [citral, 3,7-dimethyl-2,6-octadienal]
Reversibility of citral inhibition of agonist-evoked current [1]: essentially irreversible | pH 5-evoked TRPV1 current remaining after citral washout ([1]; 30 seconds after citral washout, n = 5): 0.2±0.1% | Hill coefficient (activation) ([1]; +40 mV): 2.9 | Increase of agonist-evoked current prior to onset of inhibition ([1]; +40 mV): 1.6±0.2 fold | Increase of agonist-evoked current prior to onset of inhibition ([1]; −100 mV): 1.8±0.3 fold | Kd ([1]; citral activation, +40 mV, nominal external calcium, read-out: Activation KD, app): 417 µM | Kd ([1]; citral activation, −40 mV, nominal external calcium, read-out: Activation KD, app): 465 µM | Hill coefficient (inhibition) ([1]; citral block of pH5-evoked current): 1.3 | Kd ([1]; citral block of pH5-evoked current, read-out: Inhibition KD, app): 187 µM | Agonist efficacy IpH5/Icitral (1 mM) ([1]; fold larger, −40 mV, n = 3): IpH5/Icitral (1 mM) 28±8 fold larger (n = 3; −40 mV) | Time for >50% inhibition of peak TRP current in continued presence of citral ([1]; n = 9): ≤ 14 s | Hill coefficient (activation) ([1]; −40 mV): 2.7 | Increase of inward ITRPV1 above baseline ([1]; −40 mV): 14 fold | Agonist efficacy [2]: Ø | Reversibility of citral inhibition of agonist-evoked current [2]: essentially irreversible | Increase of agonist-evoked current prior to onset of inhibition ([2]; +100 mV): 2.2±0.2 fold | Increase of agonist-evoked current prior to onset of inhibition ([2]; −100 mV): 2.5±0.4 fold | Hill coefficient (inhibition) ([2]; citral block of 2-aminoethyldiphenyl borate-evoked current): 2.4 | Kd ([2]; read-out: Inhibition KD, app): 534 µM | log P (oil/water) coefficient [3]: three | Response of capsaicin-insensitive TRPV1 point mutant [4]: remained responsive to citral
